From US10420815B2, “Combinational therapy for synergistic inhibition of gram-positive and gram-negative bacteria” (priority 2015, dated 2019)
Where “and” joins values, the source holds several entries; their conditions need not be identical. Equal values may be shown once. Entries after “also recorded” stand apart in the source; their conditions may differ. Read-outs that look alike come from different tables or passages of the source.

Columns and labels:
Type in all cases: cell-based, Staphylococcus aureus
MRSA USA300 (BAA-1680) = experiment: microbe, parasite or virus in culture; conditions: agent alone
Excerpt: (§1) MRSA (ATCC 33593), MSSA (ATCC 29213), and MRSA USA300 (BAA-1680) strains were purchased from the American Type Culture Collection (ATCC; Manassas, Va.). Eight clinical isolates of MRSA were obtained from the Culture Collection of Antimicrobial Resistant Microbes, Korea National Research Resource Center (KNRRC). Salmonella enterica Typhimurium LT2 was purchased from ATCC, and Escherichia coli O157:H7 is a kind gift from Dr. Sangryeol Ryu (Seoul National University, South Korea). All S. aureus strains were maintained in Trypticase Soy (TS) medium, and E. coli O157:H7 and Salmonella were routinely grown aerobically on Luria-Bertani (LB) media at 37° C. For measuring growth kinetics, an overnight culture of MRSA in Mueller-Hinton (MH) broth was diluted 100-fold in fresh MH broth and cultured until early exponential phase. The culture (200 μl) was transferred to each well of a sterile 96-well plate and incubated at 37° C. with bacitracin alone, alkyl gallate alone, and combination of bacitracin/alkyl gallates at various concentrations. The optical density at 600 nm (OD600) was measured every hour with FLUOstar® Omega (BMG Labtech, Germany).
(§2) Broth micro dilution assays were performed to determine the minimum inhibitory concentrations (MIC) accordance to the M7-A7 protocol of the Clinical and Laboratory Standards Institute (CLSI) guidelines^28. The susceptibility test was carried out with an initial bacterial inoculum of 1.5×10^5 CFU ml^−1. Alkyl gallates and bacitracin were serially diluted in a polystyrene 96 well plate and the plate was incubated at 37° C. for 24 h. Minimum bactericidal concentration (MBC) was determined by spotting 10 μl of cultures from MIC tests onto MH agar and incubated aerobically at 37° C.

MRSA 3095 = experiment: microbe, parasite or virus in culture; conditions: Staphylococcus aureus
Excerpt: as §1, §2

MRSA 3795 = experiment: microbe, parasite or virus in culture
Excerpt: as §1, §2

MRSA 3799 = experiment: microbe, parasite or virus in culture
Excerpt: as §1, §2

MRSA 3823 = experiment: microbe, parasite or virus in culture
Excerpt: as §1, §2

MRSA 3865 = experiment: microbe, parasite or virus in culture
Excerpt: as §1, §2

MRSA 3876 = experiment: microbe, parasite or virus in culture
Excerpt: as §1, §2

MRSA 3903 = experiment: microbe, parasite or virus in culture
Excerpt: as §1, §2

MRSA 3A585 = experiment: microbe, parasite or virus in culture; conditions: Staphylococcus aureus
Excerpt: as §1, §2

MRSA (ATCC 33593) = experiment: microbe, parasite or virus in culture
Excerpt: as §1, §2
(§3) MICs were determined with MRSA and methicillin-sensitive S. aureus (MSSA) using a broth dilution method as described above.
(§4) MRSA and MSSA were cultured overnight with antioxidants (0.5 μg/ml) and bacitracin at various concentrations and 10 μL of the culture was spotted on MH agar plates and incubated aerobically at 37° C. to observe the bacterial viability. The results in FIGS. 9A, 9B, 9C and 9D (photographs of plates) show the Minimal Bactericidal Concentrations (MBCs) for indicated antioxidants. Bacitracin killed MRSA and MSSA at concentrations greater than or equal to 2 μg/mi.

MSSA (ATCC 29213) = experiment: MIC (broth dilution) and MBC (spotting) of phenolic antioxidants and bacitracin; conditions: for MIC: antioxidant alone
Excerpt: as §1, §2, §3, §4

[1] = test system: MRSA (normal MRSA strain, not USA300); experiment: MRSA growth (optical density) with bacitracin and phenolic antioxidants; conditions: for growth of MRSA with bacitracin plus antioxidant: bacitracin 0.002 μg/mL, antioxidant 0.5 μg/mL, FIG. 6; for optical density of MRSA after 18 h culture: inhibition of growth in combination with bacitracin: bacitracin 0.002 μg/ml (ca. 0.0002 U), antioxidant 0.5 μg/ml, FIG. 8
Excerpt: as §1
MRSA were grown with bacitracin (0.002 μg/mL) with antioxidant (as shown) at 0.5 μg/mL.
FIG. 7A is growth with no added bacitracin or lauryl gallate.
The optical density of MRSA was measured after 18 h culture with bacitracin (0.002 μg/ml) and antioxidants (as indicated at 0.5 μg/ml). Also measured were controls with no additions, with bacitracin alone and with antioxidant alone. FIGS. 8A, 8B, 8C and 8D are graphs illustrating the results.

[2] = Staphylococcus aureus, read-out: MIC
[3] = Staphylococcus aureus, MRSA, antioxidant alone, read-out: MIC
[4] = MRSA 3095 (human/skin), read-out: MIC
[5] = Staphylococcus aureus, MRSA 3795 (human/nose), read-out: MIC
[6] = Staphylococcus aureus, MRSA 3799 (human/nose), read-out: MIC
[7] = Staphylococcus aureus, MRSA 3823 (human/nose), read-out: MIC
[8] = Staphylococcus aureus, MRSA 3865 (human/skin), read-out: MIC
[9] = Staphylococcus aureus, MRSA 3876 (human/skin), read-out: MIC
[10] = Staphylococcus aureus, MRSA 3903 (human/skin), read-out: MIC
[11] = MRSA 3A585 (human/blood), read-out: MIC

Compound: O=C(O)c1cc(O)c(O)c(O)c1 [Gallic acid, gallic acid]
- MBC (MRSA USA300 (BAA-1680)): 256 µg/mL
- MIC (MRSA USA300 (BAA-1680)): 128 µg/mL
- MIC (MRSA 3095; MRSA): > 1020 µg/mL
- MIC (MRSA 3795; Staphylococcus aureus, MRSA): > 1020 µg/mL
- MIC (MRSA 3799; Staphylococcus aureus, MRSA): > 1020 µg/mL
- MIC (MRSA 3823; Staphylococcus aureus, MRSA): > 1020 µg/mL
- MIC (MRSA 3865; Staphylococcus aureus, MRSA): > 1020 µg/mL
- MIC (MRSA 3876; Staphylococcus aureus, MRSA): > 1020 µg/mL
- MIC (MRSA 3903; Staphylococcus aureus, MRSA): > 1020 µg/mL
- MIC (MRSA 3A585; MRSA): > 1020 µg/mL
- MIC (MRSA (ATCC 33593); Staphylococcus aureus): > 1020 µg/mL
- MIC (MSSA (ATCC 29213); [2]): > 1020 µg/mL

Compound: O=C(O[C@@H]1Cc2c(O)cc(O)cc2O[C@@H]1c1cc(O)c(O)c(O)c1)c1cc(O)c(O)c(O)c1 [Epigallocatechin gallate, epigallocatechin gallate]
- fold decrease of bacitracin MBC by antioxidant (MRSA (ATCC 33593); MRSA, antioxidant 0.5 μg/ml, compared to bacitracin alone): > 32 fold
- MIC (MRSA (ATCC 33593); MRSA, antioxidant alone): 512 µg/mL and 256 µg/mL
- fold decrease of bacitracin MBC by antioxidant (MSSA (ATCC 29213); antioxidant 0.5 μg/ml, compared to bacitracin alone): 16 fold
- MIC (MSSA (ATCC 29213)): 128 µg/mL and 64 µg/mL
- growth of MRSA with bacitracin plus antioxidant [1]: significantly inhibited the growth of MRSA
- optical density of MRSA after 18 h culture: inhibition of growth in combination with bacitracin [1]: significantly inhibited MRSA

Compound: Cc1cc(C(C)(C)C)c(O)c(C(C)(C)C)c1 [Butylated hydroxytoluene, butylated hydroxytoluene]
- synergistic killing with bacitracin (MRSA (ATCC 33593); MRSA, antioxidant 0.5 μg/ml): did not generate any synergistic killing
- MIC (MRSA (ATCC 33593); [3]): > 1020 µg/mL
- MIC (MSSA (ATCC 29213); [2]): 1020 µg/mL
- synergistic killing with bacitracin (MSSA (ATCC 29213); antioxidant 0.5 μg/ml): did not generate any synergistic killing
- MIC (MSSA (ATCC 29213)): >1024 µg/mL
- growth of MRSA with bacitracin plus antioxidant [1]: did not show any synergistic effects with bacitracin
- optical density of MRSA after 18 h culture: inhibition of growth in combination with bacitracin ([1]; listed as BHT): no synergistic inhibition of growth; also recorded: did not show any synergistic antimicrobial effects

Compound: COc1cc(/C=C/C(=O)O)cc(OC)c1O [Sinapic acid, sinapic acid]
- MIC (MRSA (ATCC 33593); Staphylococcus aureus): > 1020 µg/mL
- MIC (MSSA (ATCC 29213); [2]): > 1020 µg/mL

Compound: Cc1onc(-c2ccccc2)c1C(=O)N[C@@H]1C(=O)N2[C@@H]1SC(C)(C)[C@@H]2C(=O)O [OXA, oxacillin]
- MIC (MRSA 3095; [4]): ≥ 64 µg/mL
- MIC (MRSA 3795; [5]): ≥ 128 µg/mL
- MIC (MRSA 3799; [6]): ≥ 128 µg/mL
- MIC (MRSA 3823; [7]): 128 µg/mL
- MIC (MRSA 3865; [8]): 128 µg/mL
- MIC (MRSA 3876; [9]): 128 µg/mL
- MIC (MRSA 3903; [10]): ≥ 128 µg/mL
- MIC (MRSA 3A585; [11]): > 2 µg/mL

Compound: O=C(O)C=Cc1ccccc1 [Cinnamic acid, cinnamic acid]
- MIC (MRSA (ATCC 33593); [3]): > 1020 µg/mL
- MIC (MSSA (ATCC 29213); [2]): > 1020 µg/mL

Compound: CC[C@H]1OC(=O)[C@H](C)[C@@H](O[C@H]2C[C@@](C)(OC)[C@@H](O)[C@H](C)O2)[C@H](C)[C@@H](O[C@@H]2O[C@H](C)C[C@H](N(C)C)[C@H]2O)[C@](C)(O)C[C@@H](C)C(=O)[C@H](C)[C@@H](O)[C@]1(C)O [ERY, erythromycin]
- MIC (MRSA 3095; [4]): ≥ 128 µg/mL
- MIC (MRSA 3795; [5]): ≥ 128 µg/mL
- MIC (MRSA 3799; [6]): ≥ 128 µg/mL
- MIC (MRSA 3823; [7]): ≥ 128 µg/mL
- MIC (MRSA 3865; [8]): ≥ 128 µg/mL
- MIC (MRSA 3876; [9]): ≥ 128 µg/mL
- MIC (MRSA 3903; [10]): ≥ 128 µg/mL
- MIC (MRSA 3A585; [11]): ≥ 4 µg/mL

Compound: penicillin
- MIC (MRSA 3795; MRSA 3795 (human/nose)): 16 µg/mL
- MIC (MRSA 3799; MRSA 3799 (human/nose)): 8 µg/mL
- MIC (MRSA 3823; MRSA 3823 (human/nose)): 16 µg/mL
- MIC (MRSA 3865; MRSA 3865 (human/skin)): 16 µg/mL
- MIC (MRSA 3876; MRSA 3876 (human/skin)): 16 µg/mL
- MIC (MRSA 3903; MRSA 3903 (human/skin)): 32 µg/mL

Compound: Oc1cc(O)c2c(c1)O[C@H](c1ccc(O)c(O)c1)[C@H](O)C2 [Epicatechin, epicatechin]
- MIC (MRSA (ATCC 33593); [3]): > 1020 µg/mL
- MIC (MSSA (ATCC 29213); [2]): > 1020 µg/mL

Compound: COc1ccc([C@@H]2CC(=O)c3c(O)cc(O[C@@H]4O[C@H](CO[C@@H]5O[C@@H](C)[C@H](O)[C@@H](O)[C@H]5O)[C@@H](O)[C@H](O)[C@H]4O)cc3O2)cc1O [Hesperedin, hesperidin]
- MIC (MRSA (ATCC 33593); MRSA, antioxidant alone): >1024 µg/mL
- MIC (MSSA (ATCC 29213)): >1024 µg/mL

Compound: O=C(N[C@H](CO)[C@H](O)c1ccc([N+](=O)[O-])cc1)C(Cl)Cl [CL, chloramphenicol]
- MIC (MRSA 3795; [5]): ≥ 128 µg/mL
- MIC (MRSA 3799; [6]): ≥ 128 µg/mL
- MIC (MRSA 3823; [7]): ≥ 128 µg/mL
- MIC (MRSA 3865; [8]): ≥ 128 µg/mL
- MIC (MRSA 3876; [9]): < 0.12 µg/mL
- MIC (MRSA 3903; [10]): ≥ 128 µg/mL
- MIC (MRSA 3A585; [11]): ≤ 0.25 µg/mL

Compound: O=C(O)c1ccccc1O [Salicylic acid, salicylic acid]
- MIC (MRSA (ATCC 33593); [3]): > 1020 µg/mL
- MIC (MSSA (ATCC 29213); [2]): > 1020 µg/mL
